Patent publication US7700602B2, “Amino-5,5-diphenylimidazolone derivatives for the inhibition of β-secretase” (Wyeth LLC, priority 2004, dated 2010)

Key:
human BACE1 = human BACE1 (Homo sapiens, UniProt P56817); test: Fluorescent kinetic assay, inhibition of BACE1 (WABC-6 peptide substrate); type: biochemical; settings: 10 nM enzyme, 25 μM substrate WABC-6, pH 4.5, room temperature; read-out: IC50 (μM) BACE1;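 further: fluorescence monitored at 320 nm excitation and 420 nm emission every 40 s over 30 min, with the substrate cleavage rate taken from the linear slope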
Chain of human BACE1 (P56817 46-501): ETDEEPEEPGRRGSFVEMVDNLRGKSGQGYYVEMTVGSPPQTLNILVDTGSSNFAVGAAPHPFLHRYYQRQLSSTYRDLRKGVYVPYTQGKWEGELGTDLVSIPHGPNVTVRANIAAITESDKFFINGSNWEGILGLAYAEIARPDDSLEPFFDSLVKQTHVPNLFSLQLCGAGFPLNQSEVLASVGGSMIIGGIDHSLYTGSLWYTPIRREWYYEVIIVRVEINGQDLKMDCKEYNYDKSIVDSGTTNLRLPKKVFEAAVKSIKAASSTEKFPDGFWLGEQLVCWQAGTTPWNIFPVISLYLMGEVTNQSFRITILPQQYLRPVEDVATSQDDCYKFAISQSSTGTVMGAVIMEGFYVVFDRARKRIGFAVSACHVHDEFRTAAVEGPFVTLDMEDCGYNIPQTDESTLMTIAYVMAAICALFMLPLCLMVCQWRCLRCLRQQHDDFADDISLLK

human BACE2 = target: T1, human BACE2 (Homo sapiens, UniProt Q9Y5Z0); test: Fluorescent Kinetic Assay for Human Recombinant BACE 2 (selectivity BACE1/BACE2); type: biochemical; settings: selectivity BACE1 over BACE2; 1.5 nM human BACE2, 25 μM substrate, pH 4.5;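 further: cleavage rate from the linear slope of fluorescence (excitation 320 nm, emission 420 nm) recorded every 40 s over 30 min at room temperature, sodium acetate buffer with 0.05% CHAPS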
T1 sequence (Q9Y5Z0 63-518): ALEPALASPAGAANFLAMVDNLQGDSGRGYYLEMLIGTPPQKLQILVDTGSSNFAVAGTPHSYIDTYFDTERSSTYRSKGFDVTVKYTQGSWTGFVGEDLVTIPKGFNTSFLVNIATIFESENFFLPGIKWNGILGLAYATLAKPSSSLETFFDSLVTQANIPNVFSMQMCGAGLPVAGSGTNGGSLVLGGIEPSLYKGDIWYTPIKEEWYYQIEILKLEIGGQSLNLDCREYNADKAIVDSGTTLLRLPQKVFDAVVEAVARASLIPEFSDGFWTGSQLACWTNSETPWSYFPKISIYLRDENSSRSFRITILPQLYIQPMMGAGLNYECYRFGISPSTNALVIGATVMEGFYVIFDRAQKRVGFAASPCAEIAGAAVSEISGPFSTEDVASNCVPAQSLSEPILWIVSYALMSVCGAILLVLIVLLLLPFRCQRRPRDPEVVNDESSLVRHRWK

| Structure (SMILES) | melting point [°C] | IC50 (human BACE1) [µM] | BACE1/BACE2 selectivity (human BACE2) |
| --- | --- | --- | --- |
| Cc1cc(C2(c3cccc(-c4cncnc4)c3)N=C(N)N(C)C2=O)ccc1OC(C)C (stereo not drawn) [Example 118] | 101 to 103 | 0.01 to 0.1 | I (I = >100-fold selectivity) |
| CCOC(=O)COc1ccc(C2(c3cccc(-c4cncnc4)c3)N=C(N)N(C)C2=O)cc1C (stereo not drawn) [Example 119] | 105 to 107 | 0.11 to 1 | II (II = 10-100-fold selectivity) |
| CCOc1ccc(C2(c3cccc(-c4cncnc4)c3)N=C(N)N(C)C2=O)cc1C (stereo not drawn) [Example 120] | 106 to 108 | 0.01 to 0.1 | I (I = >100-fold selectivity) |
| CCCOc1ccc(C2(c3cccc(-c4cncnc4)c3)N=C(N)N(C)C2=O)cc1C (stereo not drawn) [Example 121] | 102 to 104 | 0.01 to 0.1 | II (II = 10-100-fold selectivity) |
| Cc1cc(C2(c3cccc(-c4cncnc4)c3)N=C(N)N(C)C2=O)ccc1OCC(C)C (stereo not drawn) [Example 122] | 103 to 105 | 0.01 to 0.1 | II (II = 10-100-fold selectivity) |
| Cc1cc(C2(c3cccc(-c4cncnc4)c3)N=C(N)N(C)C2=O)ccc1OCCCOc1ccccc1 (stereo not drawn) [Example 124] | 72 to 74 | 0.01 to 0.1 | II (II = 10-100-fold selectivity) |
| CN1C(=S)C(c2ccc(OC(F)(F)F)cc2)(c2cccc(-c3cccnc3F)c2)N=C1N (stereo not drawn) [Example 145, 2-Amino-5-[3-(2-fluoro-pyridin-3-yl)-phenyl]-3-methyl-5-(4-trifluoromethoxy-phenyl)-3,5-dihydro-imidazole-4-thione] | 89 to 99 | 0.01 to 0.1 | II (II = 10-100-fold selectivity) |
